# Measured values as given in article PMC9822975, “Functional analysis in a model sea anemone reveals phylogenetic complexity and a role in cnidocyte discharge of DEG/ENaC ion channels” (Communications Biology, 2023).
# Where two headings read alike, the source gives them in different places.
# Legend:
# NeNaC2 = system: T1, NeNaC2; assay: two-electrode voltage clamp, Xenopus oocytes; assay type: cell-based, Nematostella vectensis; details: channel activated with pH 6.0, -70 mV
# T1 construct: full length, homomeric in Xenopus laevis oocytes (pRSSP vector, cRNA); residues H141 and G516 (DEG position)
# NeNaC8 = system: T2, NeNaC8; assay: two-electrode voltage clamp, Xenopus oocytes; assay type: cell-based, Nematostella vectensis; details: -70 mV, read-out: Apparent IC50
# T2 construct: full length, homomeric in Xenopus laevis oocytes (pRSSP vector, cRNA)
Structure (SMILES),"IC50 (NeNaC2; inhibition incomplete even at high concentrations, n = 10)","IC50 (NeNaC8; channel opened by bath with 100 nM Ca2+, n = 11)","IC50 (NeNaC2; complete inhibition at high concentrations, n = 14)","IC50 (NeNaC8; 1.8 mM Ca2+ (standard bath), pH 7.4, not competitive with Ca2+, n = 14)"
N=C(N)NC(=O)c1nc(Cl)c(N)nc1N [amiloride],1300 ± 2300 µM,310 ± 180 µM,–,–
N=C(N)c1ccc(N=NNc2ccc(C(=N)N)cc2)cc1 [diminazene],–,–,2.4 ± 0.9 µM,0.124 ± 0.075 µM
